Test results from PubChem BioAssay (NCI).
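Where inhibition never reached the appropriate level, the endpoint shown equals the highest concentration tested. Otherwise, values were interpolated linearly from a five-concentration, 48-hour dose response in 96-well plates. TGI denotes the concentration required for complete inhibition of growth.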

Key:
Experiment in all cases: inhibition of tumour cell growth, NCI panel, 48 h
NCI-H23 lung = system: NCI-H23 lung
SW-620 colon = system: SW-620 colon
UACC-257 melanoma = system: UACC-257 melanoma
MDA-MB-435 = system: MDA-MB-435
OVCAR-5 ovarian = system: OVCAR-5 ovarian
A498 renal = system: A498 renal
U251 CNS = system: U251 CNS
SK-MEL-28 melanoma = system: SK-MEL-28 melanoma
DU-145 prostate = system: DU-145 prostate
ACHN renal = system: ACHN renal
SK-MEL-5 melanoma = system: SK-MEL-5 melanoma
NCI-H226 lung = system: NCI-H226 lung
SK-MEL-2 melanoma = system: SK-MEL-2 melanoma
MDA-MB-231 breast = system: MDA-MB-231 breast
HL-60(TB) leukemia = system: HL-60(TB) leukemia
PC-3 prostate = system: PC-3 prostate
HCT-116 colon = system: HCT-116 colon
MOLT-4 leukemia = system: MOLT-4 leukemia
HT29 colon = system: HT29 colon
CCRF-CEM leukemia = system: CCRF-CEM leukemia
A549 NSCLC = system: A549 NSCLC
KM12 colon = system: KM12 colon
MCF7 breast = system: MCF7 breast
EKVX NSCLC = system: EKVX NSCLC
HOP-92 NSCLC = system: HOP-92 NSCLC
HOP-62 NSCLC = system: HOP-62 NSCLC
UACC-62 melanoma = system: UACC-62 melanoma
SNB-19 CNS = system: SNB-19 CNS
TK-10 renal = system: TK-10 renal
786-0 renal = system: 786-0 renal
NCI-H460 lung = system: NCI-H460 lung
OVCAR-3 ovarian = system: OVCAR-3 ovarian
BT-549 breast = system: BT-549 breast
OVCAR-8 ovarian = system: OVCAR-8 ovarian
SN12C renal = system: SN12C renal
SR leukemia = system: SR leukemia
IGROV1 ovarian = system: IGROV1 ovarian
OVCAR-4 ovarian = system: OVCAR-4 ovarian
T-47D breast = system: T-47D breast
MDA-N = system: MDA-N
K-562 leukemia = system: K-562 leukemia
SK-OV-3 ovarian = system: SK-OV-3 ovarian
M14 melanoma = system: M14 melanoma
HCT-15 colon = system: HCT-15 colon
CAKI-1 renal = system: CAKI-1 renal
UO-31 renal = system: UO-31 renal
RPMI-8226 leukemia = system: RPMI-8226 leukemia
SF-539 CNS = system: SF-539 CNS
COLO 205 colon = system: COLO 205 colon
NCI/ADR-RES ovarian = system: NCI/ADR-RES ovarian
LOX IMVI melanoma = system: LOX IMVI melanoma
SF-295 CNS = system: SF-295 CNS
SNB-75 CNS = system: SNB-75 CNS
HS 578T breast = system: HS 578T breast
SF-268 CNS = system: SF-268 CNS
NCI-H522 lung = system: NCI-H522 lung
MALME-3M melanoma = system: MALME-3M melanoma

Q: Which results are given for CC(C)(CC(=O)Nc1ccccc1)C(=O)O?
A: TGI (NCI-H23 lung): > 100 µM; TGI (SW-620 colon): > 100 µM; TGI (UACC-257 melanoma): > 100 µM; TGI (MDA-MB-435): > 100 µM; TGI (OVCAR-5 ovarian): > 100 µM; TGI (A498 renal): > 100 µM; TGI (U251 CNS): > 100 µM; TGI (SK-MEL-28 melanoma): > 100 µM; TGI (DU-145 prostate): > 100 µM; TGI (ACHN renal): > 100 µM; TGI (SK-MEL-5 melanoma): > 100 µM; TGI (NCI-H226 lung): > 100 µM; TGI (SK-MEL-2 melanoma): > 100 µM; TGI (MDA-MB-231 breast): > 100 µM; TGI (HL-60(TB) leukemia): > 100 µM; TGI (PC-3 prostate): > 100 µM; TGI (HCT-116 colon): > 100 µM; TGI (MOLT-4 leukemia): > 100 µM; TGI (HT29 colon): > 100 µM; TGI (CCRF-CEM leukemia): > 100 µM; TGI (A549 NSCLC): > 100 µM; TGI (KM12 colon): > 100 µM; TGI (MCF7 breast): > 100 µM; TGI (EKVX NSCLC): > 100 µM; TGI (HOP-92 NSCLC): > 100 µM; TGI (HOP-62 NSCLC): > 100 µM; TGI (UACC-62 melanoma): > 100 µM; TGI (SNB-19 CNS): > 100 µM; TGI (TK-10 renal): > 100 µM; TGI (786-0 renal): > 100 µM; TGI (NCI-H460 lung): > 100 µM; TGI (OVCAR-3 ovarian): > 100 µM; TGI (BT-549 breast): > 100 µM; TGI (OVCAR-8 ovarian): > 100 µM; TGI (SN12C renal): > 100 µM; TGI (SR leukemia): > 100 µM; TGI (IGROV1 ovarian): > 100 µM; TGI (OVCAR-4 ovarian): > 100 µM; TGI (T-47D breast): > 100 µM; TGI (MDA-N): > 100 µM; TGI (K-562 leukemia): > 100 µM; TGI (SK-OV-3 ovarian): > 100 µM; TGI (M14 melanoma): > 100 µM; TGI (HCT-15 colon): > 100 µM; TGI (CAKI-1 renal): > 100 µM; TGI (UO-31 renal): > 100 µM; TGI (RPMI-8226 leukemia): > 100 µM; TGI (SF-539 CNS): > 100 µM; TGI (COLO 205 colon): > 100 µM; TGI (NCI/ADR-RES ovarian): > 100 µM; TGI (LOX IMVI melanoma): > 100 µM; TGI (SF-295 CNS): > 100 µM

Q: With CC(C)(C)[Si](C)(C)OCC1OC(n2cnc3c(N)ncnc32)C(O[Si](C)(C)C(C)(C)C)C1O[Si](C)(C)C(C)(C)C (stereo not drawn) as the compound, how does the TGI (SNB-75 CNS) read?
A: The TGI was 27.6 µM.

Q: And the TGI (SW-620 colon)?
A: The TGI was over 100 µM.

Q: And the TGI (UACC-257 melanoma)?
A: The TGI was over 100 µM.

Q: And the TGI (HS 578T breast)?
A: Its TGI is 58.5 µM.

Q: What about the TGI (DU-145 prostate) of the same compound?
A: The TGI was over 100 µM.

Q: And the TGI (SF-268 CNS)?
A: The TGI was 56.5 µM.

Q: What about the TGI (ACHN renal) of the same compound?
A: The TGI was 27.2 µM.

Q: And the TGI (SK-MEL-5 melanoma)?
A: Its TGI is 14.4 µM.

Q: What about the TGI (SK-MEL-2 melanoma) of the same compound?
A: The TGI was 49.4 µM.

Q: What about the TGI (MDA-MB-231 breast) of the same compound?
A: The TGI was 54.1 µM.

Q: And the TGI (PC-3 prostate)?
A: The TGI was 30 µM.

Q: And the TGI (HCT-116 colon)?
A: The TGI was 22.4 µM.

Q: And the TGI (MOLT-4 leukemia)?
A: The TGI was 12.8 µM.

Q: And the TGI (HT29 colon)?
A: Its TGI is over 100 µM.

Q: What about the TGI (NCI-H522 lung) of the same compound?
A: Its TGI is 21.3 µM.

Q: And the TGI (A549 NSCLC)?
A: Its TGI is 48.5 µM.

Q: And the TGI (MALME-3M melanoma)?
A: Its TGI is over 100 µM.

Q: What about the TGI (EKVX NSCLC) of the same compound?
A: The TGI was 64.7 µM.

Q: And the TGI (HOP-92 NSCLC)?
A: Its TGI is over 100 µM.

Q: And the TGI (HOP-62 NSCLC)?
A: Its TGI is 46 µM.

Q: What about the TGI (UACC-62 melanoma) of the same compound?
A: Its TGI is 51.6 µM.

Q: And the TGI (786-0 renal)?
A: Its TGI is 18.6 µM.

Q: And the TGI (NCI-H460 lung)?
A: Its TGI is 27.3 µM.

Q: What about the TGI (OVCAR-3 ovarian) of the same compound?
A: The TGI was 13.8 µM.

Q: And the TGI (OVCAR-8 ovarian)?
A: Its TGI is 42 µM.

Q: And the TGI (SN12C renal)?
A: The TGI was 34.9 µM.

Q: And the TGI (SR leukemia)?
A: Its TGI is 86.7 µM.

Q: What about the TGI (IGROV1 ovarian) of the same compound?
A: The TGI was over 100 µM.

Q: And the TGI (T-47D breast)?
A: The TGI was 46.4 µM.

Q: What about the TGI (MDA-N) of the same compound?
A: The TGI was over 100 µM.

Q: What about the TGI (M14 melanoma) of the same compound?
A: Its TGI is 67.4 µM.

Q: What about the TGI (HCT-15 colon) of the same compound?
A: The TGI was over 100 µM.

Q: And the TGI (COLO 205 colon)?
A: The TGI was over 100 µM.

Q: And the TGI (NCI/ADR-RES ovarian)?
A: Its TGI is over 100 µM.

Q: And the TGI (LOX IMVI melanoma)?
A: Its TGI is 39.2 µM.

Q: What about the TGI (SF-295 CNS) of the same compound?
A: The TGI was 62.3 µM.
